Experimental data published in PMC12592502, “Unraveling the mechanisms behind the enhanced efficacy of β-lactam-based sideromycins” (Communications Biology, 2025).
In brackets after ≈: the same amount, converted by molar mass. Read-outs that look alike come from different tables or passages of the source.

Columns and labels:
P. aeruginosa ATCC 27853 = assay: MIC, broth microdilution (CLSI); format: cell-based, Pseudomonas aeruginosa; settings: MHBCA; for MIC in combination with PAβN (control antibiotics): + 25 µg/mL PAβN
Method: (§1) All bacterial strains (see description and sources Table S1) were stored at −80 °C, and grown on tryptone soya agar (TSA) at 35 °C. The iron-deprived (ID)-MHBCA (cation-adjusted Muller-Hinton Broth, Becton Dickinson, Mississauga, ON, Canada) medium was prepared as reported by refs. [21],[50]. Briefly, MHBCA was treated with 10% Chelex® 50-100 mesh (Sigma) and stirred for 6 h at room temperature. The resin was removed by filtration. Divalent Ca^2+ (CaCl2), Mg^2+ (MgCl2), and Zn^2+(ZnSO4), were then added in the iron-depleted medium at 22, 12, and 1 μg/ml respectively. Finally, the pH was adjusted to 7.3, and the medium was sterilized with a 0.2-μm filter. Regular MHBCA (i.e., not treated with Chelex®) was used to compare the inhibitory activity of conjugates in iron-sufficient conditions.
(§2) Minimal inhibitory concentrations (MICs) were performed using a broth microdilution technique according to the Clinical and Laboratory Standards Institute (CLSI) guidelines. MICs were determined in MHBCA and in ID-MHBCA. To check the impact of β-lactamases, MICs in the presence of a β-lactamase inhibitor were also determined. The inhibitor was homogenized at 2X the final concentration and added to the bacterial inoculum just before distributing cells into the wells containing the drug dilutions. The final concentration of each inhibitor was 4 μg/mL for clavulanic acid (tested against K. pneumoniae) and 200 μg/mL for 3-aminophenylboronic acid (tested against P. aeruginosa and A. baumannii).

E. coli MC4100 = assay: MIC; format: cell-based, Escherichia coli; settings: MC4100, MHBCA
Method: as §1, §2

E. coli ΔacrAB = assay: MIC, efflux pump mutant; format: cell-based, Escherichia coli
Method: as §2

[1] = test system: P. aeruginosa 1625 ΔmexAB-oprM, ΔmexEF-oprN; assay: MIC, efflux pump mutant; format: cell-based, Pseudomonas aeruginosa; settings: Pseudomonas aeruginosa
Method: as §2

[2] = test system: P. aeruginosa 2302 MexAB, MexCD, MexEF upregulated; assay: MIC, efflux pump overexpressing strain; format: cell-based, Pseudomonas aeruginosa; settings: Pseudomonas aeruginosa
Method: as §2

AmpC (PDC-5) = AmpC (PDC-5) (Pseudomonas aeruginosa, UniProt P24735, R79Q/T105A); assay: biochemical; format: biochemical, P. aeruginosa ATCC 27853; settings: n = 2
AmpC (PDC-5), sequence (P24735 27-397 R79Q/T105A): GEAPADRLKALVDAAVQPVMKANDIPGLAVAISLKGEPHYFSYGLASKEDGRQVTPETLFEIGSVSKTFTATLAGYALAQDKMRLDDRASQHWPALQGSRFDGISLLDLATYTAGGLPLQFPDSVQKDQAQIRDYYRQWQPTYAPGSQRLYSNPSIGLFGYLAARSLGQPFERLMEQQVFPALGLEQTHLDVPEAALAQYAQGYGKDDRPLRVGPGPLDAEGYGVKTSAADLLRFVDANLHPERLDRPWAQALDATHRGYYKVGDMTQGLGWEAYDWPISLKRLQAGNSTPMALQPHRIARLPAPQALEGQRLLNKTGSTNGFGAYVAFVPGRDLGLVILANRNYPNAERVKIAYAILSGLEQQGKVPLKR
Method: The purification of AmpC from the culture supernatant obtained above was conducted as described in the Catwright and Waley protocol[52] using an Affi-gel 10 matrix (Bio-Rad, Hercules, CA, USA) loaded in a column (G-Bioscience, St-Louis, MO, USA). First, the resin was washed with cold deionized water. The resin was then collected and mixed with 20 mL of the 3-aminophenylboronic acid solution (1 M KHCO3 containing 2 g of 3-aminophenyl boronic acid and 2 g of sorbitol) at 4 °C for 1 h, and the pH was maintained at 8 with solid KHCO3. The mixture was loaded onto the column and washed with 10 column volumes of 1 M NaCl/0.5 M sorbitol (pH 7), followed by 10 column volumes of 0.5 M borate (pH 7), and then 10 column volumes of the loading buffer (20 mM triethanolamine HCl/0.5 M NaCl, pH 7). The sample was dialyzed in the loading buffer before being loaded onto the column. The column was washed with the loading buffer until no absorbance was measured at OD280. AmpC was eluted in fractions of 1 mL with 0.5 M borate/0.5 M NaCl pH 7. […] The purity was visualized on a 10% bis-acrylamide gel. Only pure fractions showing a single band at 40 kDa were pooled together and then dialyzed at 4 °C in a KP buffer 0.05 M pH 7 (see Fig. S2). The protein concentration was determined with a Bradford protein reagent (Bio-Rad).
(§3) Enzyme concentrations were 20 nM for AmpC and SHV-1, and 50 nM for OXA-98. Quartz cuvette (FireflySci Inc., Northport, NY) with 1 cm length path and 2 mm inside width was used with an Ultrospec 2100 Pro (Biochrom, Harvard Bioscience Inc., USA) to acquire the kinetic measures. […] The following extinction coefficients (Δε) and wavelengths (λ) were used:
(§4) The steady-state parameters (Km and Kcat) were determined by plotting the initial velocity against substrate concentrations (Michaelis–Menten curve). The Kcat was measured using the Vmax (μM/sec) divided by the total enzyme concentration and the catalytic efficiency was further calculated (Kcat/Km). SHV-1 parameters were determined with three Michaelis–Menten curves of at least seven substrate concentrations, while OXA-98 and AmpC were duplicates of curves of at least seven substrate concentrations. […] Initial velocities were measured at room temperature (25 °C). The Vmax and Km were calculated using least squares fit regression in GraphPad version 10.2.2. Ki was measured using a derivative of IC50 with an adaptation of the Cheng–Prusoff equation[55]. […] The corrected Ki was calculated using this formula: Kicorrected=Ki(observed)/1+S/KmNCF

A. baumannii ATCC 19606 = assay: MIC, broth microdilution (CLSI); format: cell-based, Acinetobacter baumannii; settings: MHBCA
Method: as §1, with “conditions. The resin used for Chelex treatment was always fresh and had never been regenerated, ensuring consistent iron removal.” for “conditions.”
as §2

E. coli lptD4213 = assay: MIC, hyperpermeable mutant; format: cell-based, Escherichia coli; settings: lptD4213, MHBCA (+)
Method: as §1, with “conditions. The resin used for Chelex treatment was always fresh and had never been regenerated, ensuring consistent iron removal.” for “conditions.”
as §2

E. coli PBP3 = test system: E. coli PBP3; parameters: method as in PMID 29061741; settings: cited from earlier work
[3] = test system: CC1(C)S[C@@H]2[C@H](NC(=O)[C@H](N)c3ccccc3)C(=O)N2[C@H]1C(=O)O; assay: purified protein, by the assay type; format: biochemical, A. baumannii ATCC 19606; settings: other: 20 mM NaHCO3 added, NH = no hydrolysis detected, pH 7.0
Method: as §3, §4

[4] = test system: O=C(Cc1cccs1)N[C@@H]1C(=O)N2C(C(=O)O)=C(/C=C/c3ccc([N+](=O)[O-])cc3[N+](=O)[O-])CS[C@H]12; assay: purified protein, by the assay type; format: biochemical, A. baumannii ATCC 19606; settings: other: 20 mM NaHCO3 added, NH = no hydrolysis detected, pH 7.0
Method: as §3, §4

[5] = test system: CC1(C)S[C@@H]2[C@H](NC(=O)[C@H](N)c3ccccc3)C(=O)N2[C@H]1C(=O)O; assay: purified protein, by the assay type; settings: other: Michaelis–Menten curves, n = 3, 25 °C, pH 7.0
[6] = test system: O=C(Cc1cccs1)N[C@@H]1C(=O)N2C(C(=O)O)=C(/C=C/c3ccc([N+](=O)[O-])cc3[N+](=O)[O-])CS[C@H]12; assay: purified protein, by the assay type; settings: other: Michaelis–Menten curves, n = 3, 25 °C, pH 7.0

CC[C@H]1OC(=O)[C@H](C)[C@@H](O[C@H]2C[C@@](C)(OC)[C@@H](O)[C@H](C)O2)[C@H](C)[C@@H](O[C@@H]2O[C@H](C)C[C@H](N(C)C)[C@H]2O)[C@](C)(O)C[C@@H](C)C(=O)[C@H](C)[C@@H](O)[C@]1(C)O [ERY, erythromycin]
MIC in combination with PAβN (control antibiotics) (P. aeruginosa ATCC 27853): 32 µg/mL
MIC in combination with PAβN (control antibiotics) (E. coli MC4100; + 25 µg/mL PAβN): 16 µg/mL
MIC (E. coli ΔacrAB; Escherichia coli): 4 µM (≈ 2.94 µg/mL)
MIC (control antibiotic) (E. coli ΔacrAB; deletion of acrAB): 4 µg/mL (≈ 5.45 µM)
reduction of MIC by deletion of acrAB (E. coli ΔacrAB; versus parent E. coli): 32 fold

C[C@H]1COc2c(N3CCN(C)CC3)c(F)cc3c(=O)c(C(=O)O)cn1c23 [LVX, levofloxacin]
MIC [1]: ≤ 0.06 µM
MIC ([1]; read-out: MIC (control drug)): ≤ 0.06 µg/mL
MIC [2]: 16 µM
MIC ([2]; read-out: MIC (control drug)): 16 µg/mL

O=C(Cc1cccs1)N[C@@H]1C(=O)N2C(C(=O)O)=C(/C=C/c3ccc([N+](=O)[O-])cc3[N+](=O)[O-])CS[C@H]12 [NCF, nitrocefin]
AmpC (PDC-5) Vmax (AmpC (PDC-5)): 121 ± 3 µmol·mg/min
Km (AmpC (PDC-5); read-out: AmpC (PDC-5) Km, Michaelis–Menten curves): 103 ± 4 µM

CO[C@H]1/C=C/O[C@@]2(C)Oc3c(C)c(O)c4c(O)c(c(/C=N/N5CCN(C)CC5)c(O)c4c3C2=O)NC(=O)/C(C)=C\C=C\[C@H](C)[C@H](O)[C@@H](C)[C@@H](O)[C@@H](C)[C@H](OC(C)=O)[C@@H]1C [RIF, rifampicin, reference compound]
MIC in combination with PAβN (control antibiotics) (P. aeruginosa ATCC 27853): 2 µg/mL
MIC (control antibiotics) (P. aeruginosa ATCC 27853; without PAβN): 16 µg/mL (≈ 19.4 µM)
MIC in combination with PAβN (control antibiotics) (A. baumannii ATCC 19606; + 25 µg/mL PAβN): ≤ 0.012 µg/mL
MIC (control antibiotics) (A. baumannii ATCC 19606; without PAβN): 16 µg/mL (≈ 19.4 µM)

CN[C@H](CC(C)C)C(=O)N[C@H]1C(=O)N[C@@H](CC(N)=O)C(=O)N[C@H]2C(=O)N[C@H]3C(=O)N[C@H](C(=O)N[C@H](C(=O)O)c4cc(O)cc(O)c4-c4cc3ccc4O)[C@H](O)c3ccc(c(Cl)c3)Oc3cc2cc(c3O[C@@H]2O[C@H](CO)[C@@H](O)[C@H](O)[C@H]2O[C@H]2C[C@](C)(N)[C@H](O)[C@H](C)O2)Oc2ccc(cc2Cl)[C@H]1O [VAN, vancomycin, reference compound]
MIC (control antibiotic) (E. coli lptD4213): 0.5 µg/mL (≈ 0.345 µM)
MIC (control antibiotics) (E. coli MC4100; without PAβN): > 128 µg/mL

CC(C)(O/N=C(\C(=O)N[C@@H]1C(=O)N2C(C(=O)[O-])=C(C[N+]3(CCNC(=O)c4ccc(O)c(O)c4Cl)CCCC3)CS[C@H]12)c1csc(N)n1)C(=O)O [cefiderocol]
decrease in the IC50 for E. coli PBP3 compared to ceftazidime (E. coli PBP3): 11 fold

OXA-98 (Acinetobacter baumannii ATCC 19606 = CIP 70.34 = JCM 6841)
Km [3]: 490 ± 12 µM
kcat [3]: 22 ± 1 s⁻¹
kcat/Km [3]: 40000 ± 0 M⁻¹ s⁻¹
Km [4]: 343 ± 10 µM
kcat [4]: 3.5 ± 0.2 s⁻¹
kcat/Km [4]: 10000 ± 0 M⁻¹ s⁻¹

SHV-1 (Klebsiella pneumoniae)
Km [5]: 164 ± 4 µM
kcat [5]: 1565 ± 42 s⁻¹
kcat/Km [5]: 9.5e+06 ± 300000 M⁻¹ s⁻¹
Km [6]: 25 ± 3 µM
kcat [6]: 247 ± 48 s⁻¹
kcat/Km [6]: 9.8e+06 ± 2.3e+06 M⁻¹ s⁻¹
